# Laboratory results published in publication PMC6285983, “Novel broad spectrum virucidal molecules against enveloped viruses” (PLoS ONE, 2018).
# pEC50: −log10 of the molar value.
# Columns and labels:
# [1] = test system: HCMV; assay: HCMV inhibition assay on HELF cells; assay type: cell-based, HCMV strain Towne; settings: Human betaherpesvirus 5, HELF
# Experimental: HELF cells were pre-plated in a 96-well plate. […] After five days incubation, cells were observed under an inverted Zeiss LSM510 fluorescence microscope (Zeiss, Oberkochen, Germany) and the percentages of infection were calculated by comparing GFP positive cells in treated and untreated wells.
# [2] = test system: RSV; assay: RSV inhibition assay on Hep-2 cells; assay type: cell-based, RSV strain A2; settings: human respiratory syncytial virus
# Experimental: HeP-2 cells were pre-plated in a 96-well plate. […] 72 h later cells were fixed and subjected to specific immunostaining using an RSV monoclonal antibody (Ab35958; Abcam, Cambridge, United Kingdom) in order to visualize syncytia.
# [3] = test system: HSV-2; assay: Entry assay; assay type: cell-based; settings: 10 μM, HSV-2 MOI 10
# Experimental: (§1) Since the observed irreversible effect can be exerted at different stages of viral infection, we investigated more in detail if compound 9d produced a physical disruption of the virus, thus preventing its attachment to the cells or a successive irreversible modification. We performed entry and binding assays, evaluating the amount of bound virus through immunostaining or qPCR. […] On the contrary, when entry assays were performed, it was possible to observe a reduction in the amount of virus associated to the cells (Fig 7D). With this assay, the signal from the virus could be related to virus in the cytoplasm or blocked in the endosomes, since the treatment with acidic glycine is affecting only the virus at the surface of the cell. […]
# (§2) Cells were plated on coverslips and the following day the binding or entry protocol described above was applied. […] Rhodamine conjugated anti-rabbit (Santa Cruz) was then added on cells for 1 h at 37°C following 3 washes coverslips were mounted on microscope glasses and observed with Zeiss LSM510 fluorescence microscope (Zeiss, Oberkochen, Germany) and images were acquired.
# [4] = test system: HPV-16; assay: HPV-16 inhibition assay on HeLa cells; assay type: cell-based, HPV-16 pseudovirions
# Experimental: HeLa cells were plated in 96-well plates. […] The GFP-expressing infected cells were observed under an inverted Zeiss LSM510 fluorescence microscope (Zeiss, Oberkochen, Germany) and the percentages of infection were calculated by comparing GFP positive cells in treated and untreated wells.
# [5] = test system: HRoV; assay: HRoV inhibition assay on MA104 cells; assay type: cell-based, Human rotavirus strain Wa
# Experimental: MA104 cell were plated in 96-well trays. The following day virus infectivity was activated by adding 5 μg porcine trypsin (Sigma)/mL for 30 min at 37°C. […] After 16 h, cells were fixed with cold acetone–methanol and viral titers were determined by indirect immunostaining using the monoclonal antibody mab-0036 (specific for human 41 kDa inner capsid protein–VP6 –of rotavirus) purchased from Covalab (Villeurbanne, France) and the UltraTech HRP Streptavidin-Biotin Detection System (Beckman Colter).
# [6] = test system: HSV-2; assay: Binding assay (qPCR, immunostaining, IF); assay type: cell-based; settings: 10 μM, HSV-2 MOI 10, 2 h on Vero cells at 4°C
# Experimental: as §1, with “7D).” for “7D). With this assay, the signal from the virus could be related to virus in the cytoplasm or blocked in the endosomes, since the treatment with acidic glycine is affecting only the virus at the surface of the cell.”
# as §2
# Cells subjected to binding assays were then lysed and subjected to total DNA/RNA extraction and subsequently subjected to qPCR using as primers 5’- […] -3’ and 5’-[…] -3’ and as probe 5’-FAM […] -TAMRA for 40 cycles at 94°C for 15” followed by 60°C for 60”. The results were normalized according to values of rnasep and the % of bound virus were measured comparing the Δct of treated wells to wells treated with equal volume of solvent.
# [7] = test system: HSV-2 acyclovir resistant strain; assay: microbe, parasite or virus in culture; assay type: cell-based
# [8] = Cell viability MTS assay, conditions of the RSV assay; assay type: cell-based; settings: human, Hep-2 cells
# Experimental: Cell viability was measured using the MTS [3- (4,5-dimethylthiazol-2-yl)-5- (3 carboxy methoxy phenyl)-2-(4-sulfophenyl)-2H-tetrazolium] assay. Cell cultures were seeded in 96-well plates and were incubated with different concentrations of compounds in duplicate under the same experimental conditions described for the antiviral assays, (i.e. if the incubation time of the compound on cells was carried for 2 hours and then the evaluation of the antiviral activity was done 72h later, the same timing was used for the cytotoxicity assays, in order to exclude any toxicity effect in the antiviral evaluation). Cell viability was determined using the CellTiter 96 Proliferation Assay Kit (Promega, Madison, WI, USA) according to the manufacturer's instructions. Absorbances were measured using a Microplate Reader (Model 680, BIORAD) at 490 nm. The effect on cell viability at different concentrations of the compound was expressed as a percentage, by comparing absorbances of treated cells with those of cells incubated with culture medium and equal volumes of vehicle. The 50% cytotoxic concentrations (CC50) and 95% confidence intervals (CIs) were determined using Prism software (Graph-Pad Software, San Diego, CA). For compound 9d a continuous incubation of 1, 2, 3 and 4 days on Vero cells was carried in order to evaluate the toxicity after long exposure the results are shown in S1 Fig and Fig 3. […]
# [9] = test system: IAV H1N1; assay: IAV H1N1 inhibition assay on MDCK cells; settings: Influenza A virus
# Experimental: MDCK cells were pre-plated in 96-well plates. The following day, increasing concentrations of compounds were mixed with IAV (MOI 0.05) and incubated for 1 h at 37°C. The mixtures were subsequently added to the cells for 1 h at 37°C, after a washout cells were overlaid with medium for 16 h at 37°C. Cells were then fixed and subjected to specific immunostaining using a Flu A monoclonal antibody (Merck 5001) in order to visualize infected cells. Percentages of infection were calculated by comparing numbers of infected cells in treated and untreated wells.
smiles,measurement,setting,value
"CC(C)c1ccc(CCN2C(=O)/C(=C/c3ccc(-c4ccc(C(=O)O)c(O)c4)o3)SC2=S)cc1 [Compound 9d, (Z)-2-hydroxy-4-(5-((3-(4-isopropylphenethyl)-4-oxo-2-thioxothiazolidin-5-ylidene)methyl)furan-2-yl)benzoic acid]",pEC50,[1]; read-out: EC50 (95% C.I.),8.37
same,EC90,[1]; read-out: EC90 (95% C.I.),31.3 nM
same,pEC50,[2]; read-out: EC50 (95% C.I.),7.26
same,EC90,[2]; read-out: EC90 (95% C.I.),221 nM
same,amount of virus associated to the cells,[3],reduction
same,antiviral activity against non-enveloped virus,[4],inactive
same,antiviral activity against non-enveloped virus,[5],inactive
same,viral binding capability,[6],not altering viral binding capability
same,pEC50,"[7]; Human alphaherpesvirus 2, read-out: EC50 (95% C.I.)",8.80
same,EC90,"[7]; Human alphaherpesvirus 2, read-out: EC90 (95% C.I.)",24.3 nM
same,CC50 at 3 h,[8],17000 nM
same,pEC50,[9]; read-out: EC50 (95% C.I.),7.18
same,EC90,[9]; read-out: EC90 (95% C.I.),301 nM
